Measured values: PubChem BioAssay AID1919017 (Molecular Pharmacology Branch, DTP, NCI, 2023)

Tested on: SW1271 complex spheroids with HUVEC/MSC, growth, % test/control
Assay: Anticancer human tumor SW1271 cell line growth inhibition [AhR];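 note: spheroids exposed to agents for 7 days before readout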
Conditions: for IC50: curve of first compound; for viability, T/C: stronger effect = lower value
In short: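 Complex tumor spheroids co-cultured with HUVEC and human MSC stroma; AhR antagonists tested in combination with standard-of-care and investigational agents. Top concentration at or near clinical Cmax (else 10 microM), half-log dilutions; growth expressed as percent test/control.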

[1] = second compound 0.1 µM, first compound 0.0316 µM
[2] = second compound 0.1 µM, first compound 0.1 µM
[3] = second compound 0.1 µM, first compound 0.316 µM
[4] = second compound 0.1 µM, first compound 1 µM
[5] = second compound 0.1 µM, first compound 3.16 µM
[6] = second compound 0.1 µM, first compound 10 µM
[7] = second compound 0.316 µM, first compound 0.0316 µM
[8] = second compound 0.316 µM, first compound 0.1 µM
[9] = second compound 0.316 µM, first compound 0.316 µM
[10] = second compound 0.316 µM, first compound 1 µM
[11] = second compound 0.316 µM, first compound 3.16 µM
[12] = second compound 0.316 µM, first compound 10 µM
[13] = second compound 1 µM, first compound 0.0316 µM
[14] = second compound 1 µM, first compound 0.1 µM
[15] = second compound 1 µM, first compound 0.316 µM
[16] = second compound 1 µM, first compound 1 µM
[17] = second compound 1 µM, first compound 3.16 µM
[18] = second compound 1 µM, first compound 10 µM
[19] = second compound 3.16 µM, first compound 0.0316 µM
[20] = second compound 3.16 µM, first compound 0.1 µM
[21] = second compound 3.16 µM, first compound 0.316 µM
[22] = second compound 3.16 µM, first compound 1 µM
[23] = second compound 3.16 µM, first compound 3.16 µM
[24] = second compound 3.16 µM, first compound 10 µM
[25] = second compound 10 µM, first compound 0.0316 µM
[26] = second compound 10 µM, first compound 0.1 µM
[27] = second compound 10 µM, first compound 0.316 µM
[28] = second compound 10 µM, first compound 1 µM
[29] = second compound 10 µM, first compound 3.16 µM
[30] = second compound 10 µM, first compound 10 µM
[31] = second compound 0.1 µM, first compound 0.00316 µM
[32] = second compound 0.1 µM, first compound 0.01 µM
[33] = second compound 0.316 µM, first compound 0.00316 µM
[34] = second compound 0.316 µM, first compound 0.01 µM
[35] = second compound 1 µM, first compound 0.00316 µM
[36] = second compound 1 µM, first compound 0.01 µM
[37] = second compound 3.16 µM, first compound 0.00316 µM
[38] = second compound 3.16 µM, first compound 0.01 µM
[39] = second compound 10 µM, first compound 0.00316 µM
[40] = second compound 10 µM, first compound 0.01 µM

Structure (SMILES)	IC50 (second compound 0.1 µM)	IC50 (second compound 0.316 µM)	IC50 (second compound 1 µM)	IC50 (second compound 3.16 µM)	IC50 (second compound 10 µM)	viability, T/C [1]	viability, T/C [2]	viability, T/C [3]	viability, T/C [4]	viability, T/C [7]	viability, T/C [8]	viability, T/C [9]	viability, T/C [10]	viability, T/C [13]	viability, T/C [14]	viability, T/C [15]	viability, T/C [19]	viability, T/C [20]	viability, T/C [25]	viability, T/C [26]	also measured
CC(C)c1c(-c2ccccc2)nc2c(C#N)c[nH]n2c1=O + CC(CO)NC(=O)c1cc(-c2ccc(Cl)cc2)nn(-c2cnn(C)c2)c1=O	> 10000 nM	> 10000 nM	> 10000 nM	> 10000 nM	> 10000 nM	88.4%	101%	106%	90.9%	88.7%	85.3%	91.4%	98.1%	78.7%	89.9%	86.4%	95.7%	97.8%	71.8%	80.8%	viability, T/C [5]: 95.7%; viability, T/C [6]: 121%; viability, T/C [11]: 93.8%; viability, T/C [12]: 108%; viability, T/C [16]: 78.7%; viability, T/C [17]: 107%; viability, T/C [18]: 94.8%; viability, T/C [21]: 80.1%; viability, T/C [22]: 78%; viability, T/C [23]: 82.8%; viability, T/C [24]: 76.8%; viability, T/C [27]: 67.8%; viability, T/C [28]: 71.3%; viability, T/C [29]: 62.9%; viability, T/C [30]: 77.8%
COc1ccc([C@@H](O)c2cc(-c3ncnc4cc(N5CCOCC5)ccc34)c(F)cc2Cl)nn1 + CC(CO)NC(=O)c1cc(-c2ccc(Cl)cc2)nn(-c2cnn(C)c2)c1=O	2690 nM	1900 nM	1410 nM	1480 nM	931 nM	83.9%	96.4%	90.9%	66.5%	101%	91.4%	77.3%	58.6%	103%	108%	78.6%	92.2%	80.4%	84%	76.9%	viability, T/C [5]: 49.6%; viability, T/C [6]: 28%; viability, T/C [11]: 43.1%; viability, T/C [12]: 33.2%; viability, T/C [16]: 55.8%; viability, T/C [17]: 40.6%; viability, T/C [18]: 29.6%; viability, T/C [21]: 68.3%; viability, T/C [22]: 56.3%; viability, T/C [23]: 39.2%; viability, T/C [24]: 36.5%; viability, T/C [27]: 59.8%; viability, T/C [28]: 50.3%; viability, T/C [29]: 38%; viability, T/C [30]: 29.1%
CC[C@@]1(O)C(=O)OCc2c1cc1n(c2=O)Cc2cc3c(CN(C)C)c(O)ccc3nc2-1 + Cc1ccccc1N=Nc1ccc(NC(=O)c2ccnn2C)c(C)c1	> 100 nM	> 100 nM	> 100 nM	> 100 nM	> 100 nM	57.5%	53.1%			69.2%	63.9%			63.8%	57.3%		78.2%	67.4%	60.8%	65.5%	viability, T/C (second compound 0.1 µM, first compound 0.000316 µM): 81.8%; viability, T/C (second compound 0.1 µM, first compound 0.001 µM): 98.9%; viability, T/C [31]: 69.4%; viability, T/C [32]: 67.8%; viability, T/C (second compound 0.316 µM, first compound 0.000316 µM): 89.4%; viability, T/C (second compound 0.316 µM, first compound 0.001 µM): 92%; viability, T/C [33]: 79.9%; viability, T/C [34]: 65.8%; viability, T/C (second compound 1 µM, first compound 0.000316 µM): 77.9%; viability, T/C (second compound 1 µM, first compound 0.001 µM): 83.4%; viability, T/C [35]: 88%; viability, T/C [36]: 80%; viability, T/C (second compound 3.16 µM, first compound 0.000316 µM): 84.5%; viability, T/C (second compound 3.16 µM, first compound 0.001 µM): 86.4%; viability, T/C [37]: 88.7%; viability, T/C [38]: 68.2%; viability, T/C (second compound 10 µM, first compound 0.000316 µM): 86.7%; viability, T/C (second compound 10 µM, first compound 0.001 µM): 83%; viability, T/C [39]: 87.2%; viability, T/C [40]: 62.1%
COc1cc(C2c3cc4c(cc3C(OC3OC5COC(C)OC5C(O)C3O)C3COC(=O)C23)OCO4)cc(OC)c1O (stereo not given) + Cc1ccccc1N=Nc1ccc(NC(=O)c2ccnn2C)c(C)c1	266 nM	267 nM	419 nM	1580 nM	1020 nM	75.4%	58.1%	44.1%	50.4%	54.1%	53.9%	51.9%	46.1%	88.8%	67.5%	49.6%	66.8%	80.4%	62%	61.7%	viability, T/C [5]: 46.9%; viability, T/C [6]: 45.6%; viability, T/C [11]: 40.4%; viability, T/C [12]: 44.7%; viability, T/C [16]: 44.1%; viability, T/C [17]: 47.4%; viability, T/C [18]: 35.3%; viability, T/C [21]: 53.1%; viability, T/C [22]: 49.4%; viability, T/C [23]: 51.2%; viability, T/C [24]: 34%; viability, T/C [27]: 54%; viability, T/C [28]: 50.2%; viability, T/C [29]: 43.8%; viability, T/C [30]: 37.2%
COc1cccc2c1C(=O)c1c(O)c3c(c(O)c1C2=O)CC(O)(C(=O)CO)CC3OC1CC(N)C(O)C(C)O1 (stereo not given) + Cc1ccccc1N=Nc1ccc(NC(=O)c2ccnn2C)c(C)c1	< 31.6 nM	< 31.6 nM	152 nM	115 nM	128 nM	39.7%	52.7%	32.5%	3%	52.6%	45.9%	34.7%	2.92%	56.4%	58.8%	36.6%	54.6%	49.7%	57.6%	50.4%	viability, T/C [5]: 3.18%; viability, T/C [6]: 2.71%; viability, T/C [11]: 2.63%; viability, T/C [12]: 3.51%; viability, T/C [16]: 3.45%; viability, T/C [17]: 3.18%; viability, T/C [18]: 4.18%; viability, T/C [21]: 34.9%; viability, T/C [22]: 2.56%; viability, T/C [23]: 3.52%; viability, T/C [24]: 3.41%; viability, T/C [27]: 35.4%; viability, T/C [28]: 1.26%; viability, T/C [29]: 3.22%; viability, T/C [30]: 3.53%
Nc1ncn(C2CC(O)C(CO)O2)c(=O)n1 (stereo not given) + Cc1ccccc1N=Nc1ccc(NC(=O)c2ccnn2C)c(C)c1	> 1000 nM	> 1000 nM	> 1000 nM	> 1000 nM	> 1000 nM	64.3%	60.1%	63%	49.4%	69%	76.1%	72%	59.6%	72.7%	62.9%	75.4%	79.9%	63.7%	66.1%	71.5%	viability, T/C [31]: 81.5%; viability, T/C [32]: 86.8%; viability, T/C [33]: 82.2%; viability, T/C [34]: 66.9%; viability, T/C [35]: 79.8%; viability, T/C [36]: 71.3%; viability, T/C [16]: 60.2%; viability, T/C [37]: 72.7%; viability, T/C [38]: 83.2%; viability, T/C [21]: 64.1%; viability, T/C [22]: 59%; viability, T/C [39]: 76.1%; viability, T/C [40]: 65.5%; viability, T/C [27]: 65%; viability, T/C [28]: 69.9%
